Assay results taken from US6737383B1, “Herbicidal oxadiazolidines” (priority 1999, dated 2004).

Tests used:
giant foxtail = assay: Test B pre/postemergence giant foxtail; format: in vivo, Setaria faberii
How it was run: (§1)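 Response is a visual 0-to-10 score relative to untreated plants, where 0 means no effect and 10 means complete control, taken twelve to sixteen days after application. Treatments went onto soil at planting and onto foliage of 1- to 4-leaf plants, using a surfactant-containing non-phytotoxic solvent.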

sandbur = assay: Test D sandbur; format: in vivo, Cenchrus echinatus; conditions: Preemergence, 0 to 100 scale
How it was run: (§2)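 Herbicide screen in the greenhouse. A non-phytotoxic solvent mixture with surfactant carried the test chemical; in pre-emergence tests it went onto the soil of pots seeded no more than a day earlier. Injury was scored by eye 14 to 21 days after application, 0 to 100.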

winter wheat [1] = assay: Test E winter wheat; format: in vivo, Triticum aestivum; conditions: Postemergence
How it was run: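 Compound formulated with surfactant in a non-phytotoxic solvent (postemergence: young 1- to 4-leaf plants); held in greenhouse approx. 21–28 days; visual assessment against untreated plants.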

winter barley = assay: Test E winter barley; format: in vivo, Hordeum vulgare; conditions: Preemergence
duck salad = assay: Test B flood test duck salad; format: in vivo, Heteranthera limosa
How it was run: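 Read-out is a visual response score from 0 (no effect) to 10 (complete control), assigned by comparison with untreated controls. Treatment was applied at the 2-leaf stage, and plants stayed in the greenhouse for twelve to sixteen days before scoring.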

blackgrass = assay: Test E blackgrass; format: in vivo, Alopecurus myosuroides; conditions: Preemergence
wild oat = assay: Test E wild oat; format: in vivo, Avena fatua; conditions: Preemergence, 0 to 100 scale where 0 is no effect and 100 is complete control
Spanishneedles = assay: Test D Spanishneedles; format: in vivo, Bidens bipinnata; conditions: Preemergence, 0 to 100 scale
How it was run: as §2

Italian ryegrass = assay: Test E Italian ryegrass; format: in vivo, Lolium multiflorum; conditions: Preemergence
common pursiane = assay: Test D common purslane; format: in vivo, Portulaca oleracea; conditions: Preemergence, 0 to 100 scale
How it was run: as §2

large crabgrass = assay: Test D large crabgrass; format: in vivo, Digitaria sanguinalis; conditions: Preemergence, 0 to 100 scale
How it was run: as §2

winter wheat [2] = assay: Test E winter wheat; format: in vivo, Triticum aestivum; conditions: Preemergence
green foxtail = assay: Test E green foxtail; format: in vivo, Setaria viridis; conditions: Preemergence
crabgrass = assay: Test B pre/postemergence crabgrass; format: in vivo, Digitaria sanguinalis
How it was run: as §1

wheat = assay: Test B pre/postemergence wheat; format: in vivo, Triticum aestivum; conditions: for Plant response rating, Wheat: Rate 250 g/ha
How it was run: as §1

[3] = Postemergence, Rate 125 g/ha, scale of 0 to 10 where 0 is no effect and 10 is complete control
[4] = Postemergence, Rate 250 g/ha, scale 0 to 10, 0 no effect, 10 complete control
[5] = Preemergence, Rate 62 g/ha, scale 0 to 10 (0 no effect, 10 complete control)
[6] = Preemergence, Rate 125 g/ha, scale 0 to 10 (0 no effect, 10 complete control)
[7] = Preemergence, Rate 250 g/ha, scale of 0 to 10 where 0 is no effect and 10 is complete control
[8] = Preemergence, Rate 500 g/ha, scale 0 to 10 (0 no effect, 10 complete control)
[9] = Rate 62 g/ha, Postemergence, scale of 0 to 10 where 0 is no effect and 10 is complete control
[10] = Rate 500 g/ha, Postemergence, scale 0 to 10, 0 no effect, 10 complete control
[11] = Rate 16 g/ha, 0 no injury, 100 complete control
[12] = Rate 32 g/ha, 0 no injury, 100 complete control
[13] = Rate 64 g/ha, 0 no injury, 100 complete control
[14] = Rate 125 g/ha, 0 no injury, 100 complete control
[15] = Rate 500 g/ha, 0 to 100 scale where 0 is no effect and 100 is complete control
[16] = Rate 1000 g/ha, 0 to 100 scale where 0 is no effect and 100 is complete control

Structure (SMILES): CC(C)N(C(=O)n1oc(=O)n(Cc2cccs2)c1=O)c1ccccc1 [Compound 103]
- Giant foxtail plant response rating (giant foxtail; [3]): 1
- Giant foxtail plant response rating (giant foxtail; [4]): 3
- Giant foxtail plant response rating (giant foxtail; [5]): 8
- Plant response rating, Giant foxtail (giant foxtail; [6]): 9
- Plant response rating, Giant foxtail (giant foxtail; [7]): 9
- Giant foxtail plant response rating (giant foxtail; [8]): 9
- Giant foxtail plant response rating (giant foxtail; [9]): 0
- Giant foxtail plant response rating (giant foxtail; [10]): 7
- Plant response rating, Sandbur (sandbur; [11]): 0
- Plant response rating, Sandbur (sandbur; [12]): 0
- Sandbur plant response rating (sandbur; [13]): 0
- Sandbur plant response rating (sandbur; [14]): 0
- Plant response rating, Sandbur (sandbur; Rate 250 g/ha): 75
- Plant response rating, Sandbur (sandbur; Rate 500 g/ha): 100
- Plant response rating, Wheat (winter) (winter wheat [1]; Rate 250 g/ha, 0 to 100 scale (0 no effect, 100 complete control)): 0
- Plant response rating, Wheat (winter) (winter wheat [1]; Rate 1000 g/ha, 0 to 100 scale, 0 is no effect and 100 is complete control): 10
- Plant response rating, Wheat (winter) (winter wheat [1]; Rate 500 g/ha, 0 to 100 scale, 0 no effect, 100 complete control): 0
- Plant response rating, Barley (winter) (winter barley; Rate 250 g/ha, 0 to 100 scale): 30
- Plant response rating, Barley (winter) (winter barley; [15]): 40
- Plant response rating, Barley (winter) (winter barley; [16]): 50
- Ducksalad plant response rating (duck salad; Rate 250 g/ha, headed Pre-emergence (flood test species), scale 0 to 10 (0 no effect, 10 complete control)): 0
- Plant response rating, Ducksalad (duck salad; Rate 500 g/ha, headed Pre-emergence (flood test species), scale 0 to 10 (0 no effect, 10 complete control)): 0
- Ducksalad plant response rating (duck salad; Rate 1000 g/ha, Pre-emergence (as headed), scale 0 to 10): 0
- Ducksalad plant response rating (duck salad; Rate 2000 g/ha, Pre-emergence (as headed), scale 0 to 10): 0
- Plant response rating, Blackgrass (blackgrass; Rate 250 g/ha, 0 to 100 scale): 30
- Plant response rating, Blackgrass (blackgrass; [15]): 50
- Plant response rating, Blackgrass (blackgrass; [16]): 70
- Plant response rating, Wild oat (wild oat; Rate 500 g/ha): 50
- Plant response rating, Wild oat (wild oat; Rate 1000 g/ha): 70
- Plant response rating, Spanishneedles (Spanishneedles; [11]): 0
- Plant response rating, Spanishneedles (Spanishneedles; [12]): 0
- Spanishneedles plant response rating (Spanishneedles; [13]): 0
- Spanishneedles plant response rating (Spanishneedles; [14]): 0
- Plant response rating, Spanishneedles (Spanishneedles; Rate 500 g/ha): 20
- Plant response rating, I. Ryegrass (Italian ryegrass; Rate 250 g/ha, 0 to 100 scale): 50
- Plant response rating, I. Ryegrass (Italian ryegrass; [15]): 50
- Plant response rating, I. Ryegrass (Italian ryegrass; [16]): 70
- Plant response rating, C. purslane (common pursiane; [11]): 0
- Plant response rating, C. purslane (common pursiane; [12]): 0
- Plant response rating, C. purslane (common pursiane; [13]): 0
- Plant response rating, C. purslane (common pursiane; [14]): 0
- Plant response rating, C. purslane (common pursiane; Rate 250 g/ha): 0
- Plant response rating, C. purslane (common pursiane; Rate 500 g/ha): 0
- Plant response rating, Large crabgrass (large crabgrass; [11]): 0
- Plant response rating, Large crabgrass (large crabgrass; [12]): 0
- Plant response rating, Large crabgrass (large crabgrass; [13]): 85
- Plant response rating, Large crabgrass (large crabgrass; [14]): 95
- Plant response rating, Large crabgrass (large crabgrass; Rate 250 g/ha): 98
- Plant response rating, Large crabgrass (large crabgrass; Rate 500 g/ha): 100
- Plant response rating, Wheat (winter) (winter wheat [2]; Rate 250 g/ha, 0 to 100 scale): 20
- Plant response rating, Wheat (winter) (winter wheat [2]; [15]): 30
- Plant response rating, Wheat (winter) (winter wheat [2]; [16]): 30
- Plant response rating, Green foxtail (green foxtail; Rate 250 g/ha, 0 to 100 scale): 70
- Plant response rating, Green foxtail (green foxtail; [15]): 70
- Plant response rating, Green foxtail (green foxtail; [16]): 100
- Crabgrass plant response rating (crabgrass; [3]): 4
- Crabgrass plant response rating (crabgrass; [4]): 6
- Crabgrass plant response rating (crabgrass; [5]): 2
- Plant response rating, Crabgrass (crabgrass; [6]): 6
- Plant response rating, Crabgrass (crabgrass; [7]): 9
- Crabgrass plant response rating (crabgrass; [9]): 0
- Crabgrass plant response rating (crabgrass; [10]): 9
- Wheat plant response rating (wheat; [3]): 0
- Wheat plant response rating (wheat; [5]): 0
- Wheat plant response rating (0 to 10 scale) (wheat; Preemergence, Rate 125 g/ha, 0 is no effect, 10 is complete control): 0
- Plant response rating, Wheat (wheat; Preemergence, scale of 0 to 10 where 0 is no effect and 10 is complete control): 0
- Wheat plant response rating (wheat; [8]): 2
- Wheat plant response rating (wheat; [9]): 0
- Plant response rating, Wheat (wheat; Postemergence, scale 0 to 10, 0 is no effect, 10 is complete control): 0
- Wheat plant response rating (wheat; [10]): 0
